Reference: US20230312587A1, “PTERIDINONE COMPOUNDS AND USES THEREOF” (Vertex Pharmaceutical Incorporated, priority 2018, published 2023)
pIC50: −log10 of the molar value. Where two headings read alike, the source gives them in different places.

Tested on: β-catenin-TCF-mediated reporter transcription activity in Colo 205 cells
Test: Colo 205 reporter assay (TCF/LEF luciferase)
Format: cell-based
Conditions: Homo sapiens, COLO 205, 5 h, Colo 205 TCF/LEF luciferase reporter, read-out: TCF reporter Colo205 IC50
In short: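 Luciferase signal from a TCF/LEF-driven reporter, stably integrated in Colo 205 colon cancer cells, was measured 5 h after compound addition.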

[1] = five hours after addition of compound
[2] = R-isomer at C2 (corresponding to C2 S-isomer), 5 h

Row | SMILES | pIC50 [1] | pIC50 [2]
1 | Cc1cc(C(F)(F)F)n(C[C@H]2C[C@@H](Nc3nc(C)c4c(n3)N(C)[C@@H](C(C)C)C(=O)N4)C2)n1 [Compound 582, (S)-7-isopropyl-4,8-dimethyl-2-((cis-3-((3-methyl-5-(trifluoromethyl)-1H-pyrazol-1-yl)methyl)cyclobutyl)amino)-7,8-dihydropteridin-6(5H)-one] | 6.00 to 6.52 | 
2 | Cc1nc(N[C@H]2C[C@H](Oc3ncc(F)cn3)C2)nc2c1NC(=O)[C@H](C)N2C [Compound 276, (7S)-2-((trans-3-((5-fluoropyrimidin-2-yl)oxy)cyclobutyl)amino)-4,7,8-trimethyl-7,8-dihydropteridin-6(5H)-one] | ≤ 5.30 | 
3 | CN1C(=O)C2(COC2)N(C)c2nc(NCc3cnn(Cc4ccc(F)cc4)c3)ncc21 [Compound 228, 2′-(((1-(4-fluorobenzyl)-1H-pyrazol-4-yl)methyl)amino)-5′,8′-dimethyl-5′,8′-dihydro-6′H-spiro[oxetane-3,7′-pteridin]-6′-one] | 5.30 to 6.00 | 
4 | Cc1nc(NCc2cnn([C@@H]3CCN(C4CCC(F)(F)CC4)C3)c2)nc2c1NC(=O)[C@H](C)N2C [Compound 127, (7S)-2-(((1-((R)-1-(4,4-difluorocyclohexyl)pyrrolidin-3-yl)-1H-pyrazol-4-yl)methyl)amino)-4,7,8-trimethyl-7,8-dihydropteridin-6(5H)-one] | 6.00 to 6.52 | 
5 | Cc1nc(N[C@H]2C[C@H](OCc3ccc(F)c(F)c3)C2)nc2c1N(C)C(=O)[C@H](C)N2C [Compound 266, (7S)-2-((trans-3-((3,4-difluorobenzyl)oxy)-cyclobutyl)amino)-4,5,7,8-tetramethyl-7,8-dihydropteridin-6(5H)-one] | 6.00 to 6.52 | 
6 | Cc1nc(NCc2cnn(Cc3ccncc3C(F)(F)F)c2)nc2c1NC(=O)[C@H](C)N2C [Compound 187, (7S)-4,7,8-trimethyl-2-(((1-((3-(trifluoromethyl)pyridin-4-yl)methyl)-1H-pyrazol-4-yl)methyl)amino)-7,8-dihydropteridin-6(5H)-one] | > 6.52 | 
7 | Cc1nc(N[C@H]2C[C@@H](Nc3cc(C(F)(F)F)ncn3)C2)nc2c1NC(=O)[C@H](C)N2C [Compound 552, (S)-4,7,8-trimethyl-2-((cis-3-((6-(trifluoromethyl)pyrimidin-4-yl)amino)cyclobutyl)amino)-7,8-dihydropteridin-6(5H)-one] | ≤ 5.30 | 
8 | Cc1nc(N[C@H]2C[C@H](Nc3cc(F)c(F)c(F)c3)C2)nc2c1NC(=O)[C@H](C)N2C [Compound 486, (S)-4,7,8-trimethyl-2-((trans-3-((3,4,5-trifluorophenyl)amino)cyclobutyl)amino)-7,8-dihydropteridin-6(5H)-one] | 5.30 to 6.00 | 
9 | Cc1nc(NCc2cnn(Cc3ccc(F)c(F)c3)c2)nc2c1N(C)C(=O)[C@H](C)N2C [Compound 28, (7S)-2-(((1-(3,4-difluorobenzyl)-1H-pyrazol-4-yl)methyl)amino)-4,5,7,8-tetramethyl-7,8-dihydropteridin-6(5H)-one] | > 6.52 | 
10 | CN1C(=O)C2(CC2)N(C)c2nc(NCc3cnn(Cc4ccc(F)cc4)c3)ncc21 [Compound 227, 2′-(((1-(4-fluorobenzyl)-1H-pyrazol-4-yl)methyl)amino)-5′,8′-dimethyl-5′,8′-dihydro-6′H-spiro[cyclopropane-1,7′-pteridin]-6′-one] | 6.00 to 6.52 | 
11 | Cc1nc(N[C@H]2C[C@H](Oc3ccc(OCC(F)(F)F)nc3)C2)nc2c1NC(=O)[C@H](C)N2C [Compound 347, (7S)-4,7,8-trimethyl-2-((trans-3-((6-(2,2,2-trifluoroethoxy)pyridin-3-yl)oxy)cyclobutyl)amino)-7,8-dihydropteridin-6(5H)-one] | > 6.52 | 
12 | Cc1nc(NCc2cnn(Cc3ccnc(C#N)c3)c2)nc2c1NC(=O)[C@H](C)N2C [Compound 204, (7S)-4-((4-(((4,7,8-trimethyl-6-oxo-5,6,7,8-tetrahydropteridin-2-yl)amino)methyl)-1H-pyrazol-1-yl)methyl)picolinonitrile] | ≤ 5.30 | 
13 | Cc1nc(N[C@H]2C[C@@H](COc3cc(F)c(F)cc3F)C2)nc2c1NC(=O)[C@H](C)N2C [Compound 285, (7S)-4,7,8-trimethyl-2-((cis-3-((2,4,5-trifluorophenoxy)methyl)cyclobutyl)-amino)-7,8-dihydropteridin-6(5H)-one] | > 6.52 | 
14 | CC[C@@H]1C(=O)Nc2cnc(NCc3cnn(Cc4ccc(C(F)(F)F)nc4)c3)nc2N1C(C)C [Compound I-1646] |  | ≤ 5.30
15 | CCC[C@@H]1C(=O)N(C)c2cnc(NCc3cnn(Cc4cc(F)c(F)c(F)c4)c3)nc2N1C [Compound I-1348] |  | > 6.52
16 | Cc1nc(N[C@H]2C[C@@H](Cn3cncc3C(F)(F)F)C2)nc2c1NC(=O)[C@H](C(C)C)N2C [Compound 679, (S)-7-isopropyl-4,8-dimethyl-2-((cis-3-((5-(trifluoromethyl)-1H-imidazol-1-yl)methyl)cyclobutyl)amino)-7,8-dihydropteridin-6(5H)-one] | 6.00 to 6.52 | 
17 | Cc1nc(N[C@H]2C[C@H](NC(=O)Nc3ccc(C(F)(F)F)nc3)C2)nc2c1NC(=O)[C@H](C)N2C [Compound 471, 1-(6-(trifluoromethyl)pyridin-3-yl)-3-(trans-3-(((S)-4,7,8-trimethyl-6-oxo-5,6,7,8-tetrahydropteridin-2-yl)amino)cyclobutyl)urea] | ≤ 5.30 | 
18 | COc1ccc(N[C@H]2C[C@@H](Nc3nc(C)c4c(n3)N(C)[C@@H](C(C)C)C(=O)N4)C2)nc1 [Compound 733, (S)-7-isopropyl-2-((cis-3-((5-methoxypyridin-2-yl)amino)cyclobutyl)amino)-4,8-dimethyl-7,8-dihydropteridin-6(5H)-one] | ≤ 5.30 | 
19 | Cc1nc(N[C@H]2C[C@H](Oc3cnc(C(F)(F)F)nc3)C2)nc2c1NC(=O)[C@H](C)N2C [Compound 333, (7S)-4,7,8-trimethyl-2-((trans-3-((2-(trifluoromethyl)pyrimidin-5-yl)oxy)cyclobutyl)amino)-7,8-dihydropteridin-6(5H)-one] | > 6.52 | 
20 | C[C@H]1C(=O)Nc2cnc(N[C@H]3C[C@@H](COCc4ccc(F)cc4)C3)nc2N1C [Compound 288, (7S)-2-((cis-3-(((4-fluorobenzyl)oxy)methyl)cyclobutyl)amino)-7,8-dimethyl-7,8-dihydropteridin-6(5H)-one] | 6.00 to 6.52 | 
21 | Cc1nc(NC2CN(C(=O)C3CCC(C)O3)C2)nc2c1NC(=O)[C@H](C(C)C)N2C (stereo partly drawn) [Compound 637, (7S)-7-isopropyl-4,8-dimethyl-2-((1-(5-methyltetrahydrofuran-2-carbonyl)azetidin-3-yl)amino)-7,8-dihydropteridin-6(5H)-one] | ≤ 5.30 | 
22 | Cc1nc(N[C@H]2CCN(Cc3ccccc3)C2)nc2c1NC(=O)[C@H](C)N2C [Compound 371, (7S)-2-(((S)-1-benzylpyrrolidin-3-yl)amino)-4,7,8-trimethyl-7,8-dihydropteridin-6(5H)-one] | ≤ 5.30 | 
23 | Cc1nc(NC2CN(S(=O)(=O)c3ccc(F)cc3)C2)nc2c1NC(=O)[C@H](C(C)C)N2C [Compound 592, (7S)-2-((1-((4-fluorophenyl)sulfonyl)azetidin-3-yl)amino)-7-isopropyl-4,8-dimethyl-7,8-dihydropteridin-6(5H)-one] | ≤ 5.30 | 
24 | Cc1nc(N[C@@H]2CC[C@H](NC(=O)c3cc(F)c(F)c(F)c3)C2)nc2c1NC(=O)[C@H](C)N2C (mixture of isomers) [Compound 298, 3,4,5-trifluoro-N-(cis-3-(((S)-4,7,8-trimethyl-6-oxo-5,6,7,8-tetrahydropteridin-2-yl)amino)cyclopentyl)benzamide] | 5.30 to 6.00 | 
